The record followed here is US7612077B2, “Crystalline forms of the anti-cancer compound ZD1839” (Astrazeneca AB, priority 2002, dated 2009).

A short description of data set [1]: stability in the presence of water / as aqueous suspension. The format is physicochemical. As for the experimental part:
Form 5 ZD1839 trihydrate is a stable form of the compound of Formula I In particular, Form 5 ZD1839 trihydrate is very stable in the presence of water. For example, when Form 5 ZD1839 trihydrate is prepared as an aqueous suspension the resulting suspension is stable, whereas aqueous suspensions prepared using other forms of the compound of Formula I are prone to convert to Form 5 ZD1839 trihydrate during storage. In the case of aqueous suspensions of the compound of Formula I this can be problematic because the conversion of a less thermodynamically stable form to the Form 5 ZD1839 trihydrate can result in the growth of large crystals of the Form 5 ZD1839 trihydrate, thereby altering the particle size distribution in the suspension. […] Furthermore, if a variable mixture of two such forms of the compound of Formula I were to be present, the dissolution rate and bioavailability of the active compound(s) could be variable as a result of the different characteristics of the two forms.

A short description of data set [2]: stability of the crystalline physical form. It counts as physicochemical. The conditions noted are these: solid crystalline form.

Consider `COc1cc2ncnc(Nc3ccc(F)c(Cl)c3)c2cc1OCCCN1CCOCC1` [Form 5 ZD1839 trihydrate, 4-(3′-chloro-4′-fluoroanilino)-7-methoxy-6-(3-morpholinopropoxy)quinazoline trihydrate], for which the “stability in the presence of water” value in data set [1] (in the presence of water) is on record as “very stable”. Moreover, the “stability of aqueous suspension” value in data set [1] (prepared as an aqueous suspension, during storage) is “stable”.

Regarding `COc1cc2ncnc(Nc3ccc(F)c(Cl)c3)c2cc1OCCCN1CCOCC1` [Form 2 ZD1839 MeOH solvate, 4-(3′-chloro-4′-fluoroanilino)-7-methoxy-6-(3-morpholinopropoxy)quinazoline hemi-methanolate], the “stability of crystalline physical form” value in data set [2] is reported as “of sufficient stability”.

On to `COc1cc2ncnc(Nc3ccc(F)c(Cl)c3)c2cc1OCCCN1CCOCC1` [Form 1 ZD1839 polymorph, 4-(3′-chloro-4′-fluoroanilino)-7-methoxy-6-(3-morpholinopropoxy)quinazoline], for which the “stability of crystalline physical form” value in data set [2] is listed as “highly stable”. Regarding `COc1cc2ncnc(Nc3ccc(F)c(Cl)c3)c2cc1OCCCN1CCOCC1` [Form 3 ZD1839 DMSO solvate, 4-(3′-chloro-4′-fluoroanilino)-7-methoxy-6-(3-morpholinopropoxy)quinazoline mono-solvate with dimethyl sulphoxide], in data set [2], the “stability of crystalline physical form” value is recorded as “very stable”.
